We go through 30 molecules from patent publication US20250382305A1 (PTC THERAPEUTICS, INC., priority 2022, published 2025).

Assay [1] has as its system Total ATXN3 (tATXN3) protein. Briefly: Endogenous Total ATXN3 (tATXN3) Protein Assay (MSD immunoassay of cell lysates). Particulars: average IC50, total ATXN3 protein in cell lysate after 48 h with compound (Table 1). Type of assay: cell-based. The gist of the method: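 By electrochemiluminescent MSD sandwich immunoassay (mouse monoclonal capture, rabbit monoclonal and SULFO-TAG anti-rabbit detection), endogenous ATXN3 was quantified in lysates of cells treated 48 h at 37° C at 10,000 cells/well. Treatment used a 7-point 3.16-fold duplicate dilution series, with average IC50 grouped into star categories.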

Assay [2] has as its system ATXN3 pre-mRNA. Put plainly: RT-qPCR Assay to Quantify Exon 4 Skipping in ATXN3 pre-mRNA in Cells. Particulars: percent exon 4 skipping in ATXN3 pre-mRNA, RT-qPCR of cell lysates; average IC50. The class given is cell-based. An outline of the steps:
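IC50 derives from a dose-response fit of percent exon 4 skipping, quantified by RT-qPCR on crude lysates. Compounds tested as 7-point 3.16-fold dilutions in duplicate; cells (10,000/well) were exposed for 24 h at 37 °C before lysis.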

In general, IC50 refers to the concentration at which inhibition is half-maximal. As to `Cc1c([C@@]2(F)CCCC[C@@H]2N)sc2c(NCc3ccco3)cc(Cl)nc12` [Compound 41, 2-((1R,2S)-2-amino-1-fluorocyclohexyl)-5-chloro-N-(furan-2-ylmethyl)-3-methylthieno[3,2-b]pyridin-7-amine], the IC50 in assay [1] and in assay [2] was 30 to 300 nM each time.
Turning to `N[C@@H]1CCCO[C@H]1c1sc2c(NCc3cccs3)cc(Cl)nc2c1Br` [Compound 49, 2-((2R,3R)-3-aminotetrahydro-2H-pyran-2-yl)-3-bromo-5-chloro-N-(thiophen-2-ylmethyl)thieno[3,2-b]pyridin-7-amine], the IC50 in assay [1] and in assay [2] was > 1000 nM each time.
In the case of `Cc1c([C@@H]2CCCC[C@@H]2N)sc2c(NCc3cccs3)cc(Cl)nc12` [Compound 50, 2-((1R,2S)-2-aminocyclohexyl)-5-chloro-3-methyl-N-(thiophen-2-ylmethyl)thieno[3,2-b]pyridin-7-amine], the IC50 in assay [1] lay within 300 to 1000 nM; in assay [2], 30 to 300 nM.
On the same counts, the results for `Cc1c([C@H]2CCCC[C@H]2N)sc2c(NCc3cccs3)cc(Cl)nc12` [Compound 51, 2-((1S,2R)-2-aminocyclohexyl)-5-chloro-3-methyl-N-(thiophen-2-ylmethyl)thieno[3,2-b]pyridin-7-amine] are > 1000 nM and > 1000 nM.
As for `N[C@@H]1CCCC[C@@H]1c1sc2c(NCc3cccs3)cc(Cl)nc2c1Br` [Compound 52, 2-((1S,2R)-2-aminocyclohexyl)-3-bromo-5-chloro-N-(thiophen-2-ylmethyl)thieno[3,2-b]pyridin-7-amine], the IC50 in assay [1] and in assay [2] was > 1000 nM each time.
With `N[C@H]1CCCC[C@H]1c1sc2c(NCc3cccs3)cc(Cl)nc2c1Br` [Compound 53, 2-((1R,2S)-2-aminocyclohexyl)-3-bromo-5-chloro-N-(thiophen-2-ylmethyl)thieno[3,2-b]pyridin-7-amine], the IC50 in assay [1] and in assay [2] was 300 to 1000 nM each time.
Consider `N[C@@H]1CCCC[C@H]1c1sc2c(NCc3cccs3)cc(Cl)nc2c1Br` [Compound 54, 2-((1R,2R)-2-aminocyclohexyl)-3-bromo-5-chloro-N-(thiophen-2-ylmethyl)thieno[3,2-b]pyridin-7-amine], for which the IC50 in assay [1] and in assay [2] was 30 to 300 nM in each case.
As to `N[C@H]1CCCC[C@@H]1c1sc2c(NCc3cccs3)cc(Cl)nc2c1Br` [Compound 55, 2-((1S,2S)-2-aminocyclohexyl)-3-bromo-5-chloro-N-(thiophen-2-ylmethyl)thieno[3,2-b]pyridin-7-amine], the IC50 in assay [1] and in assay [2] was 30 to 300 nM throughout.
In the case of `N[C@H]1CCCO[C@@H]1c1sc2c(NCc3cccs3)cc(Cl)nc2c1Br` [Compound 56, 2-((2S,3S)-3-aminotetrahydro-2H-pyran-2-yl)-3-bromo-5-chloro-N-(thiophen-2-ylmethyl)thieno[3,2-b]pyridin-7-amine], the half-inhibitory concentration (IC50) is 300 to 1000 nM in assay [1] and 30 to 300 nM in assay [2].
`N[C@H]1CCCC[C@@H]1c1sc2c(NCc3cccs3)cc(Cl)nc2c1I` [Compound 57, 2-((1S,2S)-2-aminocyclohexyl)-5-chloro-3-iodo-N-(thiophen-2-ylmethyl)thieno[3,2-b]pyridin-7-amine]: the concentration for half-maximal inhibition (IC50) in assay [1] and in assay [2] was ≤ 30 nM in each case.
Consider `N[C@@H]1CCCC[C@H]1c1sc2c(NCc3cccs3)cc(Cl)nc2c1I` [Compound 58, 2-((1R,2R)-2-aminocyclohexyl)-5-chloro-3-iodo-N-(thiophen-2-ylmethyl)thieno[3,2-b]pyridin-7-amine], for which the IC50 in assay [1] and in assay [2] was > 1000 nM throughout.
Regarding `Cc1c([C@@H]2CCCC[C@H]2N)sc2c(NCc3ccco3)nc(Cl)nc12` [Compound 59, 6-((1R,2R)-2-aminocyclohexyl)-2-chloro-N-(furan-2-ylmethyl)-7-methylthieno[3,2-d]pyrimidin-4-amine], the IC50 in assay [1] was > 1000 nM; in assay [2], 300 to 1000 nM.
On the same counts, the results for `Cc1c([C@H]2CCCC[C@@H]2N)sc2c(NCc3ccco3)nc(Cl)nc12` [Compound 60, 6-((1S,2S)-2-aminocyclohexyl)-2-chloro-N-(furan-2-ylmethyl)-7-methylthieno[3,2-d]pyrimidin-4-amine] are ≤ 30 nM and ≤ 30 nM.
`Cc1c([C@@H]2OCCC[C@H]2N)sc2c(NCc3ccco3)nc(Cl)nc12` [Compound 61, 6-((2R,3R)-3-aminotetrahydro-2H-pyran-2-yl)-2-chloro-N-(furan-2-ylmethyl)-7-methylthieno[3,2-d]pyrimidin-4-amine]: the half-maximal inhibitory concentration (IC50) in assay [1] and in assay [2] was > 1000 nM each time.
`Cc1c([C@H]2OCCC[C@@H]2N)sc2c(NCc3ccco3)nc(Cl)nc12` [Compound 62, 6-((2S,3S)-3-aminotetrahydro-2H-pyran-2-yl)-2-chloro-N-(furan-2-ylmethyl)-7-methylthieno[3,2-d]pyrimidin-4-amine]: the concentration for half-maximal inhibition (IC50) was 30 to 300 nM in assay [1] and ≤ 30 nM in assay [2].
For `Cc1c([C@H]2OCCC[C@@H]2N)sc2c(NCc3ccccc3)nc(Cl)nc12` [Compound 63, 6-((2S,3S)-3-aminotetrahydro-2H-pyran-2-yl)-N-benzyl-2-chloro-7-methylthieno[3,2-d]pyrimidin-4-amine], the IC50 in assay [1] and in assay [2] was 30 to 300 nM each time.
`Cc1c([C@@H]2OCCC[C@H]2N)sc2c(NCc3ccccc3)nc(Cl)nc12` [Compound 64, 6-((2R,3R)-3-aminotetrahydro-2H-pyran-2-yl)-N-benzyl-2-chloro-7-methylthieno[3,2-d]pyrimidin-4-amine]: the IC50 in assay [1] and in assay [2] was > 1000 nM throughout.
`N[C@H]1CCCC[C@@H]1c1sc2c(NCc3ccccc3)nc(Cl)nc2c1Br` [Compound 65, 6-[(1S,2S)-2-aminocyclohexyl]-N-benzyl-7-bromo-2-chloro-thieno[3,2-d]pyrimidin-4-amine]: the half-inhibitory concentration (IC50) in assay [1] and in assay [2] was ≤ 30 nM throughout.
For the molecule `N[C@@H]1CCCC[C@H]1c1sc2c(NCc3ccccc3)nc(Cl)nc2c1Br` [Compound 66, 6-((1R,2R)-2-aminocyclohexyl)-N-benzyl-7-bromo-2-chlorothieno[3,2-d]pyrimidin-4-amine], the IC50 in assay [1] and in assay [2] was > 1000 nM each time.
Consider `N[C@@H]1CCCC[C@H]1c1sc2c(NCc3ccco3)nc(Cl)nc2c1Br` [Compound 67, 6-((1R,2R)-2-aminocyclohexyl)-7-bromo-2-chloro-N-(furan-2-ylmethyl)thieno[3,2-d]pyrimidin-4-amine], for which the IC50 in assay [1] and in assay [2] was 300 to 1000 nM throughout.
On to `N[C@H]1CCCC[C@@H]1c1sc2c(NCc3ccco3)nc(Cl)nc2c1Br` [Compound 68, 6-((1S,2S)-2-aminocyclohexyl)-7-bromo-2-chloro-N-(furan-2-ylmethyl)thieno[3,2-d]pyrimidin-4-amine], for which the IC50 in assay [1] and in assay [2] was ≤ 30 nM in each case.
`N[C@H]1CCCO[C@@H]1c1sc2c(NCc3ccccc3)nc(Cl)nc2c1Br` [Compound 69, 6-((2S,3S)-3-aminotetrahydro-2H-pyran-2-yl)-N-benzyl-7-bromo-2-chlorothieno[3,2-d]pyrimidin-4-amine]: the IC50 in assay [1] is 30 to 300 nM; in assay [2], ≤ 30 nM.
As for `N[C@@H]1CCCO[C@H]1c1sc2c(NCc3ccccc3)nc(Cl)nc2c1Br` [Compound 70, 6-((2R,3R)-3-aminotetrahydro-2H-pyran-2-yl)-N-benzyl-7-bromo-2-chlorothieno[3,2-d]pyrimidin-4-amine], the IC50 in assay [1] and in assay [2] was > 1000 nM each time.
As to `Cc1c([C@H]2CCCC[C@@H]2N)sc2c(NCc3cccs3)cc(Cl)nc12` [Compound 71, 2-((1S,2S)-2-aminocyclohexyl)-5-chloro-3-methyl-N-(thiophen-2-ylmethyl)thieno[3,2-b]pyridin-7-amine], the IC50 in assay [1] and in assay [2] was ≤ 30 nM throughout.
For the molecule `N[C@@H]1CCCCC[C@@H]1c1sc2c(NCc3cccs3)cc(Cl)nc2c1Br` [Compound 72, 2-((1S,2R)-2-aminocycloheptyl)-3-bromo-5-chloro-N-(thiophen-2-ylmethyl)thieno[3,2-b]pyridin-7-amine], the half-maximal inhibitory concentration (IC50) in assay [1] and in assay [2] was > 1000 nM each time.
Consider `N[C@H]1CCCCC[C@H]1c1sc2c(NCc3cccs3)cc(Cl)nc2c1Br` [Compound 73, 2-((1R,2S)-2-aminocycloheptyl)-3-bromo-5-chloro-N-(thiophen-2-ylmethyl)thieno[3,2-b]pyridin-7-amine], for which the half-inhibitory concentration (IC50) in assay [1] and in assay [2] was 300 to 1000 nM throughout.
For the molecule `N[C@@H]1CCCCC[C@H]1c1sc2c(NCc3cccs3)cc(Cl)nc2c1Br` [Compound 74, 2-((1R,2R)-2-aminocycloheptyl)-3-bromo-5-chloro-N-(thiophen-2-ylmethyl)thieno[3,2-b]pyridin-7-amine], the IC50 in assay [1] and in assay [2] was > 1000 nM each time.
Turning to `N[C@H]1CCCCC[C@@H]1c1sc2c(NCc3cccs3)cc(Cl)nc2c1Br` [Compound 75, 2-((1S,2S)-2-aminocycloheptyl)-3-bromo-5-chloro-N-(thiophen-2-ylmethyl)thieno[3,2-b]pyridin-7-amine], the IC50 in assay [1] and in assay [2] was 30 to 300 nM throughout.
For the molecule `N[C@@H]1CCCCC[C@@H]1c1sc2c(NCc3cccs3)cc(Cl)nc2c1Cl` [Compound 76, 2-((1S,2R)-2-aminocycloheptyl)-3,5-dichloro-N-(thiophen-2-ylmethyl)thieno[3,2-b]pyridin-7-amine], the IC50 in assay [1] and in assay [2] was > 1000 nM each time.
For the molecule `N[C@H]1CCCCC[C@H]1c1sc2c(NCc3cccs3)cc(Cl)nc2c1Cl` [Compound 77, 2-((1R,2S)-2-aminocycloheptyl)-3,5-dichloro-N-(thiophen-2-ylmethyl)thieno[3,2-b]pyridin-7-amine], the half-maximal inhibitory concentration (IC50) was > 1000 nM in assay [1] and 300 to 1000 nM in assay [2].
